{
  "source": "patent US9301951B2",
  "about": "(Ardelyx, Inc., priority 2010, dated 2016)",
  "system": "Sprague-Dawley rats",
  "assay": "In vivo co-dosing in chow (urine P out / P consumed)",
  "details": "feed or water; rat; drug in chow, nominal 100 mg/kg/day (mean dose per line in table); urine 24-96 h; read-out: Mean % inhibition Urine Pout/P consumed",
  "from_the_text": "Male, 7-week-old Sprague-Dawley rats (Charles-River laboratories international, Hollister, Calif.) were allowed to acclimate for a minimum of 3 days. The experiment was initiated by switching animals to a synthetic diet (0.6% phosphorus and 0.6% calcium, Harlan Teklad TD.84122) for four days. After this time, the animals were placed into metabolic cages for daily monitoring of food and water consumption, as well as urine and fecal collections. Test compounds were incorporated into the powdered diet listed above containing 3% chocolate flavoring (w/w, BioServ #7345) at 1.3 mg test compound per gram of diet to achieve an average daily nominal dose of 100 mg/kg/day. The actual dose received by each animal was later determined by measuring prepared diet consumption and body weight. Urine samples were collected in three daily periods from 24-48, 48-72, and 72-96 hours of drug dosing. […] Phosphorus levels in the urine were determined by anion exchange chromatography using a Dionex ICS-3000 ion chromatography system. […] Elution of urine phosphate ions was monitored via conductivity detector and reported as ppm relative to a standard ion solution containing phosphate. Daily urinary P output relative to the P consumed in the prepared diet for each animal was calculated. […] The differences between the means of control and treated groups were evaluated by t tests. […]",
  "data": [
    {"compound": "CCN(CC)c1ccc(NC(=O)c2cccc(C(=O)N(C)CCN3CCOCC3)c2)c(-c2cc(C(=O)NCc3cccc(C(F)(F)F)c3)ccn2)c1", "note": "[Example 25, N1-(4-(Diethylamino)-2-(4-((3-(trifluoromethyl)benzyl)carbamoyl)pyridin-2-yl)phenyl)-N3-methyl-N3-(2-morpholinoethyl)isophthalamide]", "values": [
      {"measurement": "inhibition in vivo at 100 mg/kg/day", "result": "10 to 30", "unit": "%"}
    ]}
  ]
}
